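1) Cells in 96-well plates. 2) Compound, 48 h, 5 concentrations. 3) Linear interpolation between surrounding doses. 4) Unreached endpoint = highest concentration. Abbreviation: GI50, concentration required for 50% inhibition of growth. Definition used: TGI = concentration required for complete inhibition of growth.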
How the values were obtained:
Experiment in all cases: NCI tumour cell line growth inhibition, 48 h
SNB-19 CNS = tested on: SNB-19 CNS
SK-MEL-2 melanoma = tested on: SK-MEL-2 melanoma
PC-3 prostate = tested on: PC-3 prostate
OVCAR-8 ovarian = tested on: OVCAR-8 ovarian
HCT-116 colon = tested on: HCT-116 colon
UO-31 renal = tested on: UO-31 renal
SNB-75 CNS = tested on: SNB-75 CNS
K-562 leukemia = tested on: K-562 leukemia
HCT-15 colon = tested on: HCT-15 colon
OVCAR-3 ovarian = tested on: OVCAR-3 ovarian
SK-OV-3 ovarian = tested on: SK-OV-3 ovarian
MDA-MB-231 breast = tested on: MDA-MB-231 breast
SR leukemia = tested on: SR leukemia
SF-295 CNS = tested on: SF-295 CNS
OVCAR-5 ovarian = tested on: OVCAR-5 ovarian
UACC-62 melanoma = tested on: UACC-62 melanoma
HS 578T breast = tested on: HS 578T breast
SW-620 colon = tested on: SW-620 colon
IGROV1 ovarian = tested on: IGROV1 ovarian
M14 melanoma = tested on: M14 melanoma
SN12C renal = tested on: SN12C renal
SF-539 CNS = tested on: SF-539 CNS
ACHN renal = tested on: ACHN renal
MALME-3M melanoma = tested on: MALME-3M melanoma
CCRF-CEM leukemia = tested on: CCRF-CEM leukemia
DU-145 prostate = tested on: DU-145 prostate
NCI-H522 lung = tested on: NCI-H522 lung
NCI-H460 lung = tested on: NCI-H460 lung
LOX IMVI melanoma = tested on: LOX IMVI melanoma
SK-MEL-28 melanoma = tested on: SK-MEL-28 melanoma
BT-549 breast = tested on: BT-549 breast
CAKI-1 renal = tested on: CAKI-1 renal
KM12 colon = tested on: KM12 colon
HL-60(TB) leukemia = tested on: HL-60(TB) leukemia
RXF 393 renal = tested on: RXF 393 renal
UACC-257 melanoma = tested on: UACC-257 melanoma
NCI-H23 lung = tested on: NCI-H23 lung
HCC-2998 colon = tested on: HCC-2998 colon
MDA-MB-435 = tested on: MDA-MB-435
U251 CNS = tested on: U251 CNS
HT29 colon = tested on: HT29 colon
A498 renal = tested on: A498 renal
MCF7 breast = tested on: MCF7 breast
TK-10 renal = tested on: TK-10 renal
A549 NSCLC = tested on: A549 NSCLC
SF-268 CNS = tested on: SF-268 CNS
RPMI-8226 leukemia = tested on: RPMI-8226 leukemia
786-0 renal = tested on: 786-0 renal
NCI-H226 lung = tested on: NCI-H226 lung
OVCAR-4 ovarian = tested on: OVCAR-4 ovarian
HOP-62 NSCLC = tested on: HOP-62 NSCLC
SK-MEL-5 melanoma = tested on: SK-MEL-5 melanoma
COLO 205 colon = tested on: COLO 205 colon
T-47D breast = tested on: T-47D breast
MOLT-4 leukemia = tested on: MOLT-4 leukemia
NCI/ADR-RES ovarian = tested on: NCI/ADR-RES ovarian

CC(C)=CC(=O)OC1C(CO)OC(Oc2cc(O)c3c(=O)cc(-c4ccc(O)c(O)c4)oc3c2)C(OC2OC(C)C(O)C(O)C2O)C1O (configuration not stated)
GI50 (SNB-19 CNS): > 100 µM
TGI (SNB-19 CNS): > 100 µM
GI50 (SK-MEL-2 melanoma): > 100 µM
TGI (SK-MEL-2 melanoma): > 100 µM
GI50 (PC-3 prostate): > 100 µM
TGI (PC-3 prostate): > 100 µM
GI50 (OVCAR-8 ovarian): > 100 µM
TGI (OVCAR-8 ovarian): > 100 µM
GI50 (HCT-116 colon): > 100 µM
TGI (HCT-116 colon): > 100 µM
GI50 (UO-31 renal): > 100 µM
TGI (UO-31 renal): > 100 µM
GI50 (SNB-75 CNS): > 100 µM
TGI (SNB-75 CNS): > 100 µM
GI50 (K-562 leukemia): > 100 µM
TGI (K-562 leukemia): > 100 µM
GI50 (HCT-15 colon): > 100 µM
TGI (HCT-15 colon): > 100 µM
GI50 (OVCAR-3 ovarian): > 100 µM
TGI (OVCAR-3 ovarian): > 100 µM
GI50 (SK-OV-3 ovarian): > 100 µM
TGI (SK-OV-3 ovarian): > 100 µM
GI50 (MDA-MB-231 breast): > 100 µM
TGI (MDA-MB-231 breast): > 100 µM
GI50 (SR leukemia): 50 µM
TGI (SR leukemia): 98.8 µM
GI50 (SF-295 CNS): > 100 µM
TGI (SF-295 CNS): > 100 µM
GI50 (OVCAR-5 ovarian): > 100 µM
TGI (OVCAR-5 ovarian): > 100 µM
GI50 (UACC-62 melanoma): > 100 µM
TGI (UACC-62 melanoma): > 100 µM
GI50 (HS 578T breast): > 100 µM
TGI (HS 578T breast): > 100 µM
GI50 (SW-620 colon): > 100 µM
TGI (SW-620 colon): > 100 µM
GI50 (IGROV1 ovarian): > 100 µM
TGI (IGROV1 ovarian): > 100 µM
GI50 (M14 melanoma): > 100 µM
TGI (M14 melanoma): > 100 µM
GI50 (SN12C renal): > 100 µM
TGI (SN12C renal): > 100 µM
GI50 (SF-539 CNS): > 100 µM
TGI (SF-539 CNS): > 100 µM
GI50 (ACHN renal): > 100 µM
TGI (ACHN renal): > 100 µM
GI50 (MALME-3M melanoma): > 100 µM
TGI (MALME-3M melanoma): > 100 µM
GI50 (CCRF-CEM leukemia): > 100 µM
TGI (CCRF-CEM leukemia): > 100 µM
GI50 (DU-145 prostate): > 100 µM
TGI (DU-145 prostate): > 100 µM
GI50 (NCI-H522 lung): > 100 µM
TGI (NCI-H522 lung): > 100 µM
GI50 (NCI-H460 lung): > 100 µM
TGI (NCI-H460 lung): > 100 µM
GI50 (LOX IMVI melanoma): > 100 µM
TGI (LOX IMVI melanoma): > 100 µM
GI50 (SK-MEL-28 melanoma): > 100 µM
TGI (SK-MEL-28 melanoma): > 100 µM
GI50 (BT-549 breast): > 100 µM
TGI (BT-549 breast): > 100 µM
GI50 (CAKI-1 renal): > 100 µM
TGI (CAKI-1 renal): > 100 µM
GI50 (KM12 colon): > 100 µM
TGI (KM12 colon): > 100 µM
GI50 (HL-60(TB) leukemia): > 100 µM
TGI (HL-60(TB) leukemia): > 100 µM
GI50 (RXF 393 renal): > 100 µM
TGI (RXF 393 renal): > 100 µM
GI50 (UACC-257 melanoma): > 100 µM
TGI (UACC-257 melanoma): > 100 µM
GI50 (NCI-H23 lung): > 100 µM
TGI (NCI-H23 lung): > 100 µM
GI50 (HCC-2998 colon): > 100 µM
TGI (HCC-2998 colon): > 100 µM
GI50 (MDA-MB-435): > 100 µM
TGI (MDA-MB-435): > 100 µM
GI50 (U251 CNS): > 100 µM
TGI (U251 CNS): > 100 µM
GI50 (HT29 colon): > 100 µM
TGI (HT29 colon): > 100 µM
GI50 (A498 renal): > 100 µM
TGI (A498 renal): > 100 µM
GI50 (MCF7 breast): > 100 µM
TGI (MCF7 breast): > 100 µM
GI50 (TK-10 renal): > 100 µM
TGI (TK-10 renal): > 100 µM
GI50 (A549 NSCLC): > 100 µM
TGI (A549 NSCLC): > 100 µM
GI50 (SF-268 CNS): > 100 µM
TGI (SF-268 CNS): > 100 µM
GI50 (RPMI-8226 leukemia): 85.6 µM
TGI (RPMI-8226 leukemia): > 100 µM
GI50 (786-0 renal): > 100 µM
TGI (786-0 renal): > 100 µM
GI50 (NCI-H226 lung): > 100 µM
TGI (NCI-H226 lung): > 100 µM
GI50 (OVCAR-4 ovarian): > 100 µM
TGI (OVCAR-4 ovarian): > 100 µM
GI50 (HOP-62 NSCLC): > 100 µM
TGI (HOP-62 NSCLC): > 100 µM
GI50 (SK-MEL-5 melanoma): > 100 µM
TGI (SK-MEL-5 melanoma): > 100 µM
GI50 (COLO 205 colon): > 100 µM
TGI (COLO 205 colon): > 100 µM
GI50 (T-47D breast): > 100 µM
TGI (T-47D breast): > 100 µM
GI50 (MOLT-4 leukemia): > 100 µM
TGI (MOLT-4 leukemia): > 100 µM
GI50 (NCI/ADR-RES ovarian): > 100 µM
TGI (NCI/ADR-RES ovarian): > 100 µM

Source: PubChem BioAssay (NCI)
